According to PMC6321509, “Search of Allosteric Inhibitors and Associated Proteins of an AKT-like Kinase from Trypanosoma cruzi” (International Journal of Molecular Sciences, 2018):
Read-outs that look alike come from different tables or passages of the source.

Key:
Assay type in all cases: cell-based
Leishmania braziliensis = experiment: In vitro experiments on Leishmania braziliensis; details: mean ± SD
in vitro = details: MTT, read-out: LC50 lethal concentration on human monocyte-derived macrophages (hMDMD)
Procedure: The cytotoxicity of the compounds was evaluated according to the ability to kill macrophages derived from human monocytes (hMDM) by the […] method, following the procedures performed by Pastrana Restrepo et al.. The hMDM were obtained from 50 mL of desfribrinated whole blood from healthy donors. These samples were mixed in a 1:1 ratio with Dulbecco PBS free of calcium and magnesium (DPBS). The mixture was centrifuged in a Ficoll Hypaque 1077 density gradient in a 1:3 ratio (blood–Ficoll) for separation of mononuclear cells, centrifuging at 2000 rpm for 20 min at 37 °C. The mononuclear cell layer was separated and these cells were washed twice with a solution of DPBS centrifuged at 13000 rpm for 10 min. After the last wash, the cells were resuspended in an RPMI medium with 10% autologous serum at a concentration of 0.3 × 10^6 cells/mL. Then, 1 mL of cells was placed in each well of 24-well culture dishes and incubated at 37 °C, 5% CO2 for 72 h to allow the differentiation of monocytes to macrophages. For the MTT test, the hMDM were adjusted to a concentration of 0.5 × 10^6 cells/mL in the RPMI medium supplemented with 10% FBS, and the concentration of the compound in the culture was adjusted (four serial dilutions starting at 200 μM). Amphotericin B and Doxorubicin were used as controls for the determination of cytotoxicity. Each experiment was performed in triplicate.
In this case, the in vitro cytotoxicity was defined by the decrease in the cell viability and growth, obtained from the OD for each experimental condition, using the following formula: (%) viability inhibition = […], where the OD of untreated cells corresponds to 100% of the viability. Growth inhibition percentage data obtained for each experimental condition were used to calculate the half lethal concentration (LC50) by the Probit analysis.
The cytotoxicity of each compound was rated according to its LC50. […]

T. cruzi amastigote = experiment: In vitro antitrypanosomal activity, amastigotes in U937 macrophages (β-galactosidase Tulahuen strain); details: Trypanosoma cruzi, U-937; infected U937 macrophages, 72 h; mean ± SD; read-out: IC50 inhibitory concentration of T. cruzi amastigote
Procedure: A human promonocitic U937 line was cultivated in RPMI-1640 medium with 10% fetal bovine serum (FBS) at a concentration of 0.25 × 10^6 cells/mL; the cells were transformed into macrophages by being incubated with phorbol 12-myristate 13-acetate (PMA) at 0.1 µg/mL. To adhere the cells, 0.1 mL of cells was added in 96-well dishes. Adherence was carried out for 72 h, and then epimastigote were added in the stationary phase of the Tulahuen strain producing β-galactosidase, at 5 parasite/cellU937 concentrations for 24 h at 37 °C with 5% CO2. To calculate the IC50 (Table 2), different concentrations of the compounds to evaluate and Benznidazole were added at an initial concentration of 20 µg/mL and 6 serial dilutions were made as a control of the effectiveness of the experiment, in addition to the control of the viability of the parasites (cells without drug treatment), from the blank of the culture medium (medium without cells), in duplicate. The cells were incubated for 72 h at 37 °C with 5% of CO2. […] The colorimetric reaction was read at 570 nm and optical densities (OD) for each experimental condition were registered. […] The half inhibitory concentration (IC50) was calculated by the Probit method using the % of inhibition for each concentration. […]

## C[C@@H]1[C@H](O)[C@@H](C)/C=C/C=C/C=C/C=C/C=C/C=C/C=C/[C@H](O[C@@H]2O[C@H](C)[C@@H](O)[C@H](N)[C@@H]2O)C[C@@H]2O[C@](O)(C[C@@H](O)C[C@@H](O)[C@H](O)CC[C@@H](O)C[C@@H](O)CC(=O)O[C@H]1C)C[C@H](O)[C@H]2C(=O)O [Amphotericin B]
Leishmania braziliensis
  IC50: 0.3 ± 0.07 µM
In vitro; mean ± SD
  CC50: 49.8 ± 6.82 µM

## O=C(Cn1ccnc1[N+](=O)[O-])NCc1ccccc1 [Benznidazole]
In vitro
  CC50: > 200 µg/mL
T. cruzi amastigote
  IC50: 16.6 ± 4 µM

## COc1cccc2c1C(=O)c1c(O)c3c(c(O)c1C2=O)C[C@@](O)(C(=O)CO)C[C@@H]3O[C@H]1C[C@H](N)[C@H](O)[C@H](C)O1 [Doxorrubicin, Doxorubicin]
In vitro; mean ± SD
  CC50: 3.91 ± 0.4 µM
